According to US11338009B2 (The Children's Hospital of Philadelphia, priority 2017, dated 2022):
Where two headings read alike, the source gives them in different places.

Legend:
[1] = biological target: T1, hCC L68Q variant (Homo sapiens, UniProt P01034, L94Q); test: Incubation of supernatants and cellular extracts of hCC-expressing HEK-293T cells with reducing agents, non-reducing SDS-PAGE/Western blot for cystatin C; format: biochemical; conditions: for concentration at which equivalent loss of high molecular signal was observed: supernatants or cell extracts treated in vitro (FIG. 6); for ability to disrupt high molecular weight complexes of L68Q Cyst-C: supernatants or cell extracts treated in vitro, 1 h at 37 C (FIG. 6); for oligomerization of hCC WT and L68Q variant in presence of reducing agent: DTT 50 mM or β-mercaptoethanol 5% in sample buffer, lysates and supernatants; for inhibition at 3000 µM / HMW of secreted hCC L68Q (quantitation): 3 mM; for HMW of secreted hCC L68Q (quantitation) / oligomerization/dimerization levels of secreted hCC L68Q variant in vitro: supernatants, 37° C. for 60 min; for high molecular weight complexes of L68Q Cyst-C: supernatants and cell extracts, 1 h at 37° C. (FIG. 5)
T1 construct: Dashed line represents the N-terminal signal peptide subject to proteolysis; expressed in transfected cells
T1 sequence (P01034 27-146 L94Q): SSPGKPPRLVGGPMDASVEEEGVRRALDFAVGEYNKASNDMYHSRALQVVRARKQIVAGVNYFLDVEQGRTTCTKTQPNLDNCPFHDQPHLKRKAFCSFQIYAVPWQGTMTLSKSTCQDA
Procedure: A plasmid containing a cDNA of CST3 was obtained from Dharmacon (Lafayette, Colo.). The full length coding sequence was amplified with a c-terminal Myc tag by PCR using the forward primer […] All sequences were confirmed by Sanger sequencing. […] After transfection cells were incubated with fresh medium containing puromycin (1 μg/ml) for 3 weeks. After selection, stable clones of each transfectant were generated by limiting dilution.
After clearing the cell lysates by centrifugation (10 minutes, 21,000×g, 4° C.), the supernatants were collected and used for Western blotting. Sample buffer containing SDS, glycerol, Tris-HCl pH 6.8, and bromophenol blue was added to each sample to the following final concentrations: 2% SDS, 10% glycerol, 50 mM Tris-HCl, 0.02% bromophenol blue. In samples that were reduced, either DTT (50 mM final concentration) or β-mercaptoethanol (5% final concentration) were added. […] Proteins were transferred to PVDF membranes (Millipore, Billerica, Mass.) and blotted with anti-hCystatin C, and developed by enhanced chemiluminescence (ECL; Thermo Fisher Scientific). ECL films were scanned, and densities of bands were determined using the gel analysis features of Fiji.^59
(§1) The means and standard deviations of data were calculated. One-sided T-test tests were used to determine the level of significance with respect to the untreated samples, with p<0.05 being considered statistically significant.

[2] = test system: HEK-293T cells; test: Viability and proliferation of hCC-expressing HEK-293T cells in the presence of reducing agents; format: cell-based, human
Procedure: (§2) HEK-239T cells were plated on 6-well plates and cultured for 2 days, at which point reduced glutathione (GSH) (Sigma, St. Louis, Mo.) or N-acetylcystein (NAC) (Sigma) were added to the indicated concentrations. Cells were incubated with compounds for 72 hours, and 100 μl samples of supernatants were removed at 24, 48, and 72 hours. Supernatants were cleared by centrifugation (10 minutes, 21,000×g, 4° C.). Sample buffer containing SDS, glycerol, Tris-HCl pH 6.8, and bromophenol blue was added to each sample to the following final concentrations: 2% SDS, 10% glycerol, 50 mM Tris-HCl, 0.02% bromophenol blue. When indicated, cells were washed with PBS and lysed and cystatin C levels were determined by means of Western blot analysis.

[3] = biological target: T2, secreted hCC L68Q (Homo sapiens, UniProt P01034, L94Q); test: Treatment of live HEK-293T cells expressing hCC WT or L68Q with compounds, Western blot of supernatants or lysates; format: cell-based; conditions: for presence of HMW and LMW of secreted hCC L68Q / reduction of HMW and LMW of secreted hCC L68Q: 10 mM; for presence of HMW and LMW of secreted hCC L68Q: 24 h and 48 h time points; for reduction of HMW and LMW of secreted hCC L68Q: 72 h; for effect on oligomerization of secreted hCC L68Q: lower doses (below 10 mM)
T2 construct: Dashed line represents the N-terminal signal peptide subject to proteolysis; expressed in transfected cells
T2 sequence (P01034 27-146 L94Q): T1 sequence (P01034 27-146 L94Q)
Procedure: HEK-293T cells expressing hCC WT or the L68Q variant were washed twice with ice-cold phosphate-buffered saline (PBS) and lysed on ice using a freshly prepared ice-cold cell lysis buffer containing 50 mM Tris-HCl, pH 7.4, 100 mM NaCl, 50 mM β-glycerophosphate, 10% glycerol (w/v), 1% NP-40 (w/v), 1 mM EDTA, 2 mM NaVO4, and a complete, EDTA-free, protein inhibitor cocktail (Roche Applied Science, Mannheim Germany) at 20 μl per mL of lysis buffer. After clearing the cell lysates by centrifugation (10 minutes, 21,000×g, 4° C.), the supernatants were collected and used for Western blotting. Sample buffer containing SDS, glycerol, Tris-HCl pH 6.8, and bromophenol blue was added to each sample to the following final concentrations: 2% SDS, 10% glycerol, 50 mM Tris-HCl, 0.02% bromophenol blue. In samples that were reduced, either DTT (50 mM final concentration) or β-mercaptoethanol (5% final concentration) were added. Equal volumes of lysate or supernatant samples were loaded on NuPAGE 4-12% Bis-Tris gels (Thermo Fisher Scientific, Waltham Mass.) without heating/boiling. Proteins were transferred to PVDF membranes (Millipore, Billerica, Mass.) and blotted with anti-hCystatin C, and developed by enhanced chemiluminescence (ECL; Thermo Fisher Scientific). ECL films were scanned, and densities of bands were determined using the gel analysis features of Fiji.^59
as §2, §1

[4] = human, in vivo
[5] = biological target: T3, amyloid-cystatin protein complex aggregates in the skin (Homo sapiens, UniProt P01034, L94Q); test: Cystatin C immunostaining of skin biopsies from HCCAA patients (hCC L68Q carriers) on NAC therapy; format: in vivo
T3 construct: from tissue; host or cells: human skin biopsies from HCCAA patients
T3 sequence (P01034 27-146 L94Q): T1 sequence (P01034 27-146 L94Q)
Source text: Three 4 mm skin biopsies from the back were taken from each of the three studied individuals. The skin biopsies were formalin-fixed and paraffin-embedded. They were cut into 3 μm sections for immunohistochemistry and immunostained with rabbit polyclonal cystatin C antibody (Sigma, HPA013143) using the EnVision Detection System as previously described.^22 hCC immunoreactivity in the carriers skin biopsies was quantified by semi-automated image analysis using the ImageJ software as previously described.^22 Bright-field images of each section from the carriers were captured using a ×20/0.3 NA objective. RGB color images of the sections were imported to ImageJ. On each image, a rectangular 2000×2000 pixels region of interest (ROI) was defined. Subsequent processing yielding the % area coverage of hCC immunoreactivity within each ROI was performed as previously described^22. […] The second biopsy was taken immediately prior to the family-wide initiation of NAC treatment (600 mg of NAC 3× per day for 6 months). The third biopsy was taken following 6 months of 600 mg 3× per day of NAC therapy.
The proband received 400 mg NAC 4× per day for 9 months followed by 600 mg 3× per day for 6 months. The parent received only the 600 mg 3× per day for 6 months course. The proband never missed a dose; the parent did miss the middle dose 2-3 times per week.

[6] = biological target: T4, Cyst-C L68Q (Homo sapiens, UniProt P01034, L94Q); test: Incubation of plasma or brain extracts of Cyst-C L68Q transgenic mice with NAC, non-reducing Western blot; format: biochemical; conditions: 1 h at 37° C.
T4 construct: from tissue; host or cells: plasma and brain extracts of Cyst-C L68Q transgenic mice (from Levy, New York University)
T4 sequence (P01034 27-146 L94Q): T1 sequence (P01034 27-146 L94Q)
Procedure: FIG. 7. High molecular weight complexes of Cyst-C L68Q can be detected in transgenic mice. Short incubation of NAC impairs oligomerization of Cyst-C L68Q on blood and brain extracts. Plasma or brain extracts were incubated in presence of NAC during 1 h at 37° C. with indicated concentrations. Samples were mixed with 2% SDS without reducing agents prior to electrophoresis, and proteins levels were detected by biotinylated anti-cystatin C antibody followed by streptavidin-HRP.
Additional results have been generated from transgenic mice that were obtained from our collaborator Eufrat Levy at New York University. These mice have been transformed with a human genomic DNA which contains the coding sequence of Cyst-C, […] non-coding portions of the gene which may impact expression levels. […] Western blots from the mouse tissue extracts are not as clean as blots from the cell system, as the antibody we use to detect was raised in a mouse. […] Although there are several non-specific high molecular weight bands observed in the non-transgenic samples, a clear high molecular weight “smear” is seen in the transgenic animals, consistent with what we observe in supernatant from the cell culture system.

For `CC(=O)N[C@@H](CS)C(N)=O`, the “concentration at which equivalent loss of high molecular signal was observed” value (from here on “concentration at which equivalent loss”) [1] was 1 mM and the “ability to disrupt high molecular weight complexes of L68Q Cyst-C” value [1] was “retain the ability to disrupt”.
In the case of `O[C@@H](CS)[C@@H](O)CS` [DTT], the “oligomerization of hCC WT and L68Q variant in presence of reducing agent” value [1] is reported as “completely abolished”.
For `N[C@@H](CCC(=O)N[C@@H](CS)C(=O)NCC(=O)O)C(=O)O` [GSH, glutathione], the “cell viability for the duration of the experiment” value ([2]; all concentrations (up to 10 mM), 72 hours) was “viable”, the “proliferation of the cells” value ([2]; highest 10 mM concentration (data not shown)) was “slightly impacted” and the “presence of HMW and LMW of secreted hCC L68Q” value [3] was “completely abolished”. For the same molecule, the “reduction of HMW and LMW of secreted hCC L68Q” value [3] was “appreciable but incomplete reduction”, the “effect on oligomerization of secreted hCC L68Q” value (shortened to “effect on oligomerization”) ([3]; 24 h and 48 h) was “only incompletely effective” and the “effect on oligomerization” value ([3]; after 72 h) was “no significant effect”. For the same molecule, the inhibition at 3000 µM ([1]; cellular extract, 37° C., read-out: inhibition of the HMW on the intracellular fraction of the L68Q hCC variant (densitometry)) was roughly 50%, the inhibition at 3000 µM ([1]; supernatant, 37° C., read-out: inhibition of the HMW in the secreted fraction of the L68Q hCC variant (densitometry)) was roughly 90% and the “HMW of secreted hCC L68Q (quantitation)” value [1] was “almost complete ablation”. The “amount of dimer and/or HMW oligomer in secreted and intracellular fraction of hCC WT or L68Q variant” value ([1]; 3 or 10 mM, 37° C.) was “severely reduced”, the “oligomerization/dimerization levels of secreted hCC L68Q variant in vitro” value ([1]; 3 or 10 mM) was “severely reduces” and the “high molecular weight complexes of L68Q Cyst-C” value [1] was “significant reduction”.
With `CC(=O)N[C@@H](CS)C(=O)O` [NAC, N-acetyl cysteine] the “tolerability of oral therapy” value [4] was “well tolerated and without adverse events”, the “reduction in staining of skin biopsy” value ([5]; parent), 600 mg 3× per day for 6 months, middle dose missed 2-3 times per week) was 50% and the “progression of amyloid-cystatin stain intensity between skin biopsy #1 and #2” value ([5]; proband, on NAC for about 9 months, stopped a few months prior to second biopsy) was “had not progressed in any significant way”. For the same molecule, the “reduction in staining of skin biopsy” value ([5]; sibling, lower doses of NAC) was “less obvious”, the “presence of HMW and LMW of secreted hCC L68Q” value [3] was “completely abolished” and the “reduction of HMW and LMW of secreted hCC L68Q” value [3] was “appreciable but incomplete reduction”. For the same molecule, the “dimerization status of the intracellular levels of L68Q hCC” value ([3]; extracellular treatment of cells (data not shown)) was “does not appear to impact”, the “effect on oligomerization” value ([3]; 24 h and 48 h) was “only incompletely effective” and the “effect on oligomerization” value ([3]; after 72 h) was “no significant effect”. The Cyst-C monomer [6] was “causes the appearance of monomer”, the “high molecular weight smear of transgenic human Cyst-C” value [6] was “reduces this smear” and the “HMW of secreted hCC L68Q (quantitation)” value [1] was “almost complete ablation”. For the same molecule, the “oligomerization/dimerization levels of secreted hCC L68Q variant in vitro” value ([1]; 3 or 10 mM) was “severely reduces”, the “high molecular weight complexes of L68Q Cyst-C” value [1] was “significant reduction” and the “concentration at which equivalent loss” value [1] was 10 mM.
With `COC(=O)[C@H](CS)NC(C)=O` [NAC-methyl ester, N-acetylcysteine methyl ester] the “concentration at which equivalent loss” value [1] was 1 mM and the “ability to disrupt high molecular weight complexes of L68Q Cyst-C” value [1] was “retain the ability to disrupt”.
With `CC(=O)N[C@@H](CO)C(=O)O` [NAS, n-acetyl-serine] the “high molecular weight complexes of L68Q Cyst-C” value [1] was “does not affect”.
For `OCCS` [b-mercaptoethanol], the “oligomerization of hCC WT and L68Q variant in presence of reducing agent” value [1] was “completely abolished”.
With GSSH the “high molecular weight complexes of L68Q Cyst-C” value [1] was “does not affect”.
